Test results from ChEMBL document CHEMBL1275593 (2010).
Converted amounts (≈) assume the structure as drawn.

Experiments:
Bacillus anthracis [1] = test: microbe, parasite or virus in culture; settings: BA103
Bacillus anthracis [2] = test: microbe, parasite or virus in culture; settings: BA104

Structure (SMILES): O=C(O)c1cn(C2CC2)c2cc(N3CCNCC3)c(F)cc2c1=O [CIPROFLOXACIN]
- MIC (Bacillus anthracis [1]): 0.064 mg/L (≈ 0.193 µM)
- MIC (Bacillus anthracis [2]): 0.064 mg/L (≈ 0.193 µM)
